# Reference: patent US20170246241A1, “Methods for the Selective Treatment of Tumors by Calcium-Mediated Induction of Apoptosis” (priority 2003, published 2017)
# “Also recorded” adds a separate entry of the source.
# Assays:
# [1] = tested on: MEL-STR cells; test: Annexin V-FITC apoptosis detection by flow cytometry (apoptotic+dead cells); format: cell-based, human; details: for fold more potent at inducing apoptosis in STR compared to STVP cells: 5 hour exposure (FIGS. 13, 14); for greater sensitivity / potency advantage, malignant versus non-malignant cells, induction of apoptosis: 5 hrs exposure (FIG. 3, FIG. 4)
# Protocol: (§1) FIG. 2. […] Malignant (MEL-STR) and non-malignant (MEL-STVP) cells used in these experiments were derived originally from normal human foreskin melanocytes obtained from the Weisberg lab. These original surgical samples were genetically modified to grow continuously in vitro and are non-tumor-forming in a nude mouse model. These same cells were genetically modified further to generate the tumor-forming cell line and were propagated.
# Apoptotic+dead cells were assayed in this experiment and those that follow below on a Becton-Dickenson flow cytometer using an Annexin V-FITC Apoptosis Detection Kit as described by the manufacturer.
# Drug exposure time was 5 hrs. Viable and live cells were measured by FACS and by Coulter counting, respectively. […] Panels A & B: solid circles and lines, STR cells; open circles and broken lines, STVP cells; Panel B, inverse logit/log plot of the data from Panel A. Solid gray circles in Panel B (extrapolated minimum values on abscissa) were used to plot the maximum values shown in Panel A.
# [2] = tested on: certain cancers; details: in vivo; cited from earlier work
# [3] = tested on: MEL-STR cells; test: Cell morphology (FACS light scatter, microscopic examination); format: cell-based, human
# Source text: Calmodulin is known to be required for traverse of late G1, G2, and specific periods during mitosis and coincides with periods of elevated […] levels.
# The involvement of a form of PKC in the enzyme tetrad that is involved in Ca^2+-dependent, cell cycle phase transitions is given in FIG. 4. […] Four different means for assaying the effect of these two chemicals are shown.
# [4] = tested on: MEL-STR cells; test: Annexin V-FITC apoptosis detection by flow cytometry (apoptotic+dead cells); format: cell-based, human; details: 60 μm W-7, time course over 24 hrs
# [5] = tested on: MEL-STVP cells; test: as above; format: cell-based, human
# Source text: as §1, with “propagated. Thus, this represents an ideal pair of highly similar cells by which drug specificity between normal and malignant cells can be assessed.” for “propagated.”
# Transformed MEL-STR cells were incubated over a period of 24 hrs in the presence of a previously determined ineffective concentration (10 μm) of the CAM antagonist W-7 or the drug vehicle DMSO (1%) as controls and a concentration of 60 μm W-7 as illustrated. Apoptotic+dead cells were assayed in this experiment and those that follow below on a Becton-Dickenson flow cytometer using an Annexin V-FITC Apoptosis Detection Kit as described by the manufacturer.
# Drug exposure time was 5 hrs. Viable and live cells were measured by FACS and by Coulter counting, respectively. Dose-dependent decreases in viable cells were inversely proportional to the number of Annexin+Propidium Iodide positive staining cells (data not shown) in these and the following experiments. […]
# [6] = tested on: STVP cells; test: Cell density / growth inhibition by Coulter counting; format: cell-based, human; details: PP2B-AIP alone, wide concentration range, 24 hours
# Protocol: Closed circles, solid lines, PP2B-AIP only; open circles, dashed lines, PP2B+C6C (15 uM). Cell density was quantified by Coulter counting which measures only cells with Panel A, STR cells; Panel B, STVP cells. Closed circles, solid lines, PP2B-AIP only; open circles, dashed lines, PP2B+C6C (15 uM). Cell density was quantified by Coulter counting which measures only cells with ionically intact plasma membranes (presumed live cells). Drug exposure time was 24 hours. Cell density values are expressed as a percentage of maximum for no drug or C6C only controls. Solid black lines in Panels A & B and dashed line in Panel B represent the average of all values across the PP2B-AIP concentration range. The ability of PKC agonists on apoptosis induction is potentiated by antagonists of Calmodulin-dependent protein phosphatase (a.k.a. Calcineurin or PP2B) and these effects occur at lower drug concentrations in transformed cells than in untransformed cells. […]
# [7] = tested on: STR cells; details: PP2B-AIP alone, wide concentration range, 24 hours
# Protocol: Panel B, cell density measured by Coulter counting; Panel C, morphological changes measured by changes in forward light scatter as measured by FACS; Panel D, percentage of spherical cells was determined on live cell populations by counting approximately 500 cells in a representative field using an inverted phase contrast microscope.
# Closed circles, solid lines, PP2B-AIP only; open circles, dashed lines, PP2B+C6C (15 uM). Cell density was quantified by Coulter counting which measures only cells with Panel A, STR cells; Panel B, STVP cells. Closed circles, solid lines, PP2B-AIP only; open circles, dashed lines, PP2B+C6C (15 uM). Cell density was quantified by Coulter counting which measures only cells with ionically intact plasma membranes (presumed live cells). Drug exposure time was 24 hours. Cell density values are expressed as a percentage of maximum for no drug or C6C only controls. Solid black lines in Panels A & B and dashed line in Panel B represent the average of all values across the PP2B-AIP concentration range ionically intact plasma membranes (presumed live cells). Drug exposure time was 24 hours. Cell density values are expressed as a percentage of maximum for no drug or C6C only controls. Solid black lines in Panels A & B and dashed line in Panel B represent the average of all values across the PP2B-AIP concentration range.
# [8] = PP2B-AIP alone, over the concentration range tested
compound,measurement,setting,value
"CCCCCCCCCCCCC/C=C/[C@@H](O)[C@H](CO)NC(=O)CCCCC [C6C, N-Hexanoyl-D-erythro-Sphingosine]",fold more potent at inducing apoptosis in STR compared to STVP cells,[1],ca. 6 fold
same,potentiation of induction of apoptosis in combination with W-7,"[1]; C6C combined with W-7, 5 hr exposure",potentiated
same,"greater sensitivity / potency advantage, malignant versus non-malignant cells, induction of apoptosis",[1]; MEL-STR vs MEL-STVP,~10 fold
C=C1/C(=C\C=C2/CCC[C@]3(C)[C@@H]([C@H](C)CCCC(C)(C)O)CC[C@@H]23)C[C@@H](O)C[C@@H]1O [Calcitriol],reduction of the incidence of certain cancers,[2],17-20%
"CCCCCCCCCCCCCC(=O)O[C@@H]1[C@@H](C)[C@@]2(O)[C@@H](C=C(CO)C[C@]3(O)C(=O)C(C)=C[C@@H]23)[C@@H]2C(C)(C)[C@]12OC(C)=O [PMA, Phorbol-12-Myristate-13-Acetate]",potentiation of induction of apoptosis in combination with W-7 (Annexin assay),[1]; PMA combined with submaximal W-7,shows potentiation; also recorded: synergy
same,potentiation of cell shape change in combination with W-7,"[3]; PMA combined with W-7, light scatter by FACS and microscopic examination",Potentiation is also confirmed; also recorded: synergistic drug effects
"Oc1ccc(Nc2nc(-c3ccc(Cl)cc3)cs2)cc1 [SKi, 4-[[4-(4-Chlorophenyl)-1,3-thiazol-2-yl]amino]phenol]",potentiation of induction of apoptosis in combination with W-7,[1]; SKi combined with W-7,synergy
"Cl.NCCCCCCNS(=O)(=O)c1cccc2c(Cl)cccc12 [W-7, N-(6-aminohexyl)-5-chloro-1-naphthalenesulfonamide hydrochloride]",induction of apoptosis at 10 μm,"[1]; 10 μm, previously determined",ineffective
same,fold more potent at inducing apoptosis in STR compared to STVP cells,[1],ca. 5 fold
same,"sensitivity to induction of apoptosis, malignant versus non-malignant cells","[1]; MEL-STR vs MEL-STVP, 5 hr. exposure, dose response (FIG. 3)",more than 10 times
same,"greater sensitivity / potency advantage, malignant versus non-malignant cells, induction of apoptosis",[1]; MEL-STR vs MEL-STVP,10 fold
same,time at which morphological rounding of cells can be observed,"[3]; 60 μm W-7, microscopically or by FACS light scatter",1 hr
same,population scoring positively for apoptosis,[4],> 90%
same,time at which induction of apoptosis can be seen,[4],3 h
Ac-RRRRRRRRRRRGGGRMAPPRRDAMPSDA-NH2 [PP2B-AIP],"induction of apoptosis, drug alone",[1]; [8],no visible induction of apoptosis
same,maximum of cells killed,"[1]; PP2B-AIP with C6C, 5 hr. exposure",≤ 50%
same,potentiation of apoptosis in combination with C6C,[1]; combined with C6C,potentiation is seen only in the transformed MEL-STR cell line
same,"induction of apoptosis, drug alone",[5]; [8],no visible induction of apoptosis
same,potentiation of apoptosis in combination with C6C,[5]; combined with C6C,not in untransformed MEL-STVP cells
same,"effect on growth, drug alone",[6],no discernible effect
same,"effect on growth, drug alone",[7],no discernible effect
